Measured values from US20110054216A1, “NOVEL PROCESS FOR MAKING (2R)-(3-AMINO-2-FLUOROPROPYL)PHOSPHINIC ACID FORM A” (priority 2007, published 2011).

Assay: isoelectric point of the zwitterion
Format: physicochemical
Conditions: pH at which it may be crystallised
Protocol: (2R)-(3-amino-2-fluoropropyl)phosphinic acid is a zwitterion, that may be crystallised at the isoelectric point, in this case approximately at a pH of 5.3. As the reaction is performed during acidic conditions, the protonated species of (2R)-(3-amino-2-fluoropropyl)phosphinic acid is formed. After completed reaction, the pH is adjusted to 5-6 by addition of a base in order to isolate (2R)-(3-amino-2-fluoropropyl)phosphinic acid crude as the zwitterion. The solution of (2R)-(3-amino-2-fluoropropyl)phosphinic acid works as a buffer solution and the amount of base added to reach the set pH-interval (5-6) is can be varied in the range of from 1.8-2.8 equivalents.

SMILES: NC[C@@H](F)C[PH](=O)O [(2R)-(3-amino-2-fluoropropyl)phosphinic acid]
- isoelectric point (pH): ~5.3
